Laboratory results reported in article PMC12090182, “Repurposing of the RIPK1-Selective Benzo[1,4]oxazepin-4-one Scaffold for the Development of a Type III LIMK1/2 Inhibitor” (ACS Chemical Biology, 2025).
Where two headings read alike, the source gives them in different places.

Legend:
Experiment in all cases: biochemical
Assay type in all cases: binding
[1] = biological target: 468 kinases including some pathogenic mutants (Homo sapiens, UniProt O94804); conditions: LOK (Entrez STK10), 100 nM; read-out: Percent Control
[2] = biological target: 468 kinases including some pathogenic mutants (Homo sapiens, UniProt P00519, T315I); conditions: read-out: Percent Control
[3] = biological target: 468 kinases including some pathogenic mutants (Homo sapiens, UniProt P06213); conditions: INSR (Entrez INSR), 100 nM; read-out: Percent Control
[4] = biological target: 468 kinases including some pathogenic mutants (Homo sapiens, UniProt P07947); conditions: YES (Entrez YES1), 100 nM; read-out: Percent Control
[5] = biological target: 468 kinases including some pathogenic mutants (Homo sapiens, UniProt P07948); conditions: LYN (Entrez LYN), 100 nM; read-out: Percent Control
[6] = biological target: 468 kinases including some pathogenic mutants (Homo sapiens, UniProt P08631); conditions: HCK (Entrez HCK), 100 nM; read-out: Percent Control
[7] = biological target: 468 kinases including some pathogenic mutants (Homo sapiens, UniProt P10721, V559D); conditions: read-out: Percent Control
[8] = biological target: 468 kinases including some pathogenic mutants (Homo sapiens, UniProt P17612); conditions: PKAC-alpha (Entrez PRKACA), 1000 nM; read-out: Percent Control
[9] = biological target: 468 kinases including some pathogenic mutants (Homo sapiens, UniProt P24723); conditions: PRKCH (Entrez PRKCH), 1000 nM; read-out: Percent Control
[10] = biological target: 468 kinases including some pathogenic mutants (Homo sapiens, UniProt P35968); conditions: VEGFR2 (Entrez KDR), 100 nM; read-out: Percent Control
[11] = biological target: 468 kinases including some pathogenic mutants (Homo sapiens, UniProt P42336, E545A); conditions: read-out: Percent Control
[12] = biological target: 468 kinases including some pathogenic mutants (Homo sapiens, UniProt P57078); conditions: RIPK4 (Entrez RIPK4), 100 nM; read-out: Percent Control
[13] = biological target: 468 kinases including some pathogenic mutants (Homo sapiens, UniProt Q05397); conditions: FAK (Entrez PTK2), 100 nM; read-out: Percent Control
[14] = biological target: 468 kinases including some pathogenic mutants (Homo sapiens, UniProt Q13131); conditions: AMPK-alpha1 (Entrez PRKAA1), 100 nM; read-out: Percent Control
[15] = biological target: 468 kinases including some pathogenic mutants (Homo sapiens, UniProt Q13554); conditions: CAMK2B (Entrez CAMK2B), 100 nM; read-out: Percent Control
[16] = biological target: 468 kinases including some pathogenic mutants (Homo sapiens, UniProt Q15139); conditions: PRKD1 (Entrez PRKD1), 100 nM; read-out: Percent Control
[17] = biological target: 468 kinases including some pathogenic mutants (Homo sapiens, UniProt Q15418); conditions: 1000 nM, read-out: Percent Control
[18] = biological target: 468 kinases including some pathogenic mutants (Homo sapiens, UniProt Q15569); conditions: TESK1 (Entrez TESK1), 100 nM; read-out: Percent Control
[19] = biological target: 468 kinases including some pathogenic mutants (Homo sapiens, UniProt Q6P3R8); conditions: NEK5 (Entrez NEK5), 100 nM; read-out: Percent Control
[20] = biological target: 468 kinases including some pathogenic mutants (Homo sapiens, UniProt Q7L7X3); conditions: TAOK1 (Entrez TAOK1), 1000 nM; read-out: Percent Control
[21] = biological target: 468 kinases including some pathogenic mutants (Homo sapiens, UniProt Q96BR1); conditions: SGK3 (Entrez SGK3), 100 nM; read-out: Percent Control
[22] = biological target: 468 kinases including some pathogenic mutants (Homo sapiens, UniProt Q99755); conditions: PIP5K1A (Entrez PIP5K1A), 100 nM; read-out: Percent Control
[23] = biological target: 468 kinases including some pathogenic mutants (Homo sapiens, UniProt Q9H2X6); conditions: HIPK2 (Entrez HIPK2), 100 nM; read-out: Percent Control
[24] = biological target: 468 kinases including some pathogenic mutants (Homo sapiens, UniProt Q9P1W9); conditions: PIM2 (Entrez PIM2), 100 nM; read-out: Percent Control
[25] = biological target: 468 kinases including some pathogenic mutants (Homo sapiens, UniProt Q9P289); conditions: MST4 (Entrez MST4), 100 nM; read-out: Percent Control
[26] = biological target: 468 kinases including some pathogenic mutants (Homo sapiens, UniProt Q9UKI8); conditions: TLK1 (Entrez TLK1), 1000 nM; read-out: Percent Control
[27] = biological target: 468 kinases including some pathogenic mutants (Homo sapiens, UniProt Q9UL54); conditions: TAOK2 (Entrez TAOK2), 100 nM; read-out: Percent Control
[28] = biological target: 468 kinases including some pathogenic mutants (Homo sapiens, UniProt Q9UQM7); conditions: CAMK2A (Entrez CAMK2A), 100 nM; read-out: Percent Control
[29] = biological target: 468 kinases including some pathogenic mutants (Homo sapiens, UniProt Q9Y2U5); conditions: MAP3K2 (Entrez MAP3K2), 1000 nM; read-out: Percent Control

468 kinases including some pathogenic mutants (Homo sapiens, UniProt Q15418), sequence (Q15418 whole entry, change not shown): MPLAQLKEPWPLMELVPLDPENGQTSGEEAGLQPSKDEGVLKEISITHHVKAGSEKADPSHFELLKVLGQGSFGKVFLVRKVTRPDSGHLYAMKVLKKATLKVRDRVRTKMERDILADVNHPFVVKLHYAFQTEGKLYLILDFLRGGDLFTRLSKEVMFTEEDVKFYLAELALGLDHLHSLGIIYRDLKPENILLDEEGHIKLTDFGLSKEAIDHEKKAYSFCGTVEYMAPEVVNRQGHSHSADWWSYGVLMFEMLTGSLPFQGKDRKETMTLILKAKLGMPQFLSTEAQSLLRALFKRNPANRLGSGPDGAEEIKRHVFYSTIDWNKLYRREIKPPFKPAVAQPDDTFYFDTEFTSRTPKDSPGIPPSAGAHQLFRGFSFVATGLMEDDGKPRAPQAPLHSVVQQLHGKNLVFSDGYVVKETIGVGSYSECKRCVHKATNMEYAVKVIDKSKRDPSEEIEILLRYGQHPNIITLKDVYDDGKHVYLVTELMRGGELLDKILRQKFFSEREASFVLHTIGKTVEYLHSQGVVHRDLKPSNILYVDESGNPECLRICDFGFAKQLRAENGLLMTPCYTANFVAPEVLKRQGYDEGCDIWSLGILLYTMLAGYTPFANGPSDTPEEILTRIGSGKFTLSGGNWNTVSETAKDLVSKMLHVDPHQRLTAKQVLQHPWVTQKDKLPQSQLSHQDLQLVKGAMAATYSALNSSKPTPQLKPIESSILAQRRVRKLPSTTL
468 kinases including some pathogenic mutants (Homo sapiens, UniProt P10721, V559D), sequence (P10721 26-976 V559D): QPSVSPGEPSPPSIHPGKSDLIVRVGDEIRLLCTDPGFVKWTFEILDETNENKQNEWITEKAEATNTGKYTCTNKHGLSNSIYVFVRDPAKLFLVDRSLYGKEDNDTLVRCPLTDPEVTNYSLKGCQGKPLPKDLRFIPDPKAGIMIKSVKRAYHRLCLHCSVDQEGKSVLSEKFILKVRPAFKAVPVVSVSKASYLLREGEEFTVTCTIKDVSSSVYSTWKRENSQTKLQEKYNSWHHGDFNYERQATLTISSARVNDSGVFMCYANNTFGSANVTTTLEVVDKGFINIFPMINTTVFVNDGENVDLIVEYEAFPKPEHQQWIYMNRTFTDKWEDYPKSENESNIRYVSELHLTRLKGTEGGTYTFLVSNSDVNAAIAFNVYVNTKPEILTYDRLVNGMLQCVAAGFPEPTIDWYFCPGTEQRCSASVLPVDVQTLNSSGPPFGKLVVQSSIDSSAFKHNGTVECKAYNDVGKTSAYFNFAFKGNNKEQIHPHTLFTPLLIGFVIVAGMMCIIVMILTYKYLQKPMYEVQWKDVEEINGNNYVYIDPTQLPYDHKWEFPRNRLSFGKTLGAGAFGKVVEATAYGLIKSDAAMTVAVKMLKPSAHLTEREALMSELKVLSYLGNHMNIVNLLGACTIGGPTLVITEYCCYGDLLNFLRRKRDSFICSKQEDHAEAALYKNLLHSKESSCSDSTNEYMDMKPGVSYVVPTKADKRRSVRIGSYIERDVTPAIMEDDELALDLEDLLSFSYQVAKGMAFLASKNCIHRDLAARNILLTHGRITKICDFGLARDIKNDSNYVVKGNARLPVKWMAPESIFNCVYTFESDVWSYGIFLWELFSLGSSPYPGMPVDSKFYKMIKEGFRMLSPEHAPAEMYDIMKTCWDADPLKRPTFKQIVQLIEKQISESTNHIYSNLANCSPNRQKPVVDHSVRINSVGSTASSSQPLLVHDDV
468 kinases including some pathogenic mutants (Homo sapiens, UniProt Q13554), sequence (Q13554 whole entry, change not shown): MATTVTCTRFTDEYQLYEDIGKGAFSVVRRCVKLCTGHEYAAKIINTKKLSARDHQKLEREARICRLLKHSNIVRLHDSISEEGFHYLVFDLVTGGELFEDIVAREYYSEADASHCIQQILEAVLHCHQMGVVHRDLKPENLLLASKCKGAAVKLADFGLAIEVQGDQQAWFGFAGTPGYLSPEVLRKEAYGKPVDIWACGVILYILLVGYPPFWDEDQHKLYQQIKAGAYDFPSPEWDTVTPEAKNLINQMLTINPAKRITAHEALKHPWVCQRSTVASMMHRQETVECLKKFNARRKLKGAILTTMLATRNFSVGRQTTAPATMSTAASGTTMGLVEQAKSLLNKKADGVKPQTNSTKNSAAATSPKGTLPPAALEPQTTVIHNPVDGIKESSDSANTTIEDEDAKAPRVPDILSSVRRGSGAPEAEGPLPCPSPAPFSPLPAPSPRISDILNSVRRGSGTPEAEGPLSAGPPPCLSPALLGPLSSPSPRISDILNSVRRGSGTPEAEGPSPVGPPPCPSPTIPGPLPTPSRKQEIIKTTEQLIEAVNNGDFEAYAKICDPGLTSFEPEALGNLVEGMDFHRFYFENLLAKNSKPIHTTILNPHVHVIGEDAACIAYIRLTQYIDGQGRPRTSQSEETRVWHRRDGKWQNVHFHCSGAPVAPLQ
468 kinases including some pathogenic mutants (Homo sapiens, UniProt Q9UKI8), sequence (Q9UKI8 whole entry, change not shown): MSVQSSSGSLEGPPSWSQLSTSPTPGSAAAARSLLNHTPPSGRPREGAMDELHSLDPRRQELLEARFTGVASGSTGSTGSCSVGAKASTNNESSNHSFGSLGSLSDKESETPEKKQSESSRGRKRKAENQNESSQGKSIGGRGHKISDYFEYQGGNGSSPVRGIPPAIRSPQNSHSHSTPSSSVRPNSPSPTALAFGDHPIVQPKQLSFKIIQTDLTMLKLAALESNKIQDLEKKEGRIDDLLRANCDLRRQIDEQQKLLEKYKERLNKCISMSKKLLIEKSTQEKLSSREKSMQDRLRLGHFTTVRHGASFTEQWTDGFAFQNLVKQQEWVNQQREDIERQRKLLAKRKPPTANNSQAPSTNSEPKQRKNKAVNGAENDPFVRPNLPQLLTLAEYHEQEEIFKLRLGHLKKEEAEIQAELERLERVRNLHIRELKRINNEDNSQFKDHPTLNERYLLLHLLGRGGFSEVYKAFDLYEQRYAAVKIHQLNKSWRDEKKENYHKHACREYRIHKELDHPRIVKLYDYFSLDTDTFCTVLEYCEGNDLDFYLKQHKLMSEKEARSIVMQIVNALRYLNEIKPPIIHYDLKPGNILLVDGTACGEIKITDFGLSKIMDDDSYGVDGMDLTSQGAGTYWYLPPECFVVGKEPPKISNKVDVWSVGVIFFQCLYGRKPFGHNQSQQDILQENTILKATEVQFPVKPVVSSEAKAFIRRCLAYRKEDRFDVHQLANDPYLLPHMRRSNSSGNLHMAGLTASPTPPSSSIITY
468 kinases including some pathogenic mutants (Homo sapiens, UniProt O94804), sequence (O94804 whole entry, stated change not applied): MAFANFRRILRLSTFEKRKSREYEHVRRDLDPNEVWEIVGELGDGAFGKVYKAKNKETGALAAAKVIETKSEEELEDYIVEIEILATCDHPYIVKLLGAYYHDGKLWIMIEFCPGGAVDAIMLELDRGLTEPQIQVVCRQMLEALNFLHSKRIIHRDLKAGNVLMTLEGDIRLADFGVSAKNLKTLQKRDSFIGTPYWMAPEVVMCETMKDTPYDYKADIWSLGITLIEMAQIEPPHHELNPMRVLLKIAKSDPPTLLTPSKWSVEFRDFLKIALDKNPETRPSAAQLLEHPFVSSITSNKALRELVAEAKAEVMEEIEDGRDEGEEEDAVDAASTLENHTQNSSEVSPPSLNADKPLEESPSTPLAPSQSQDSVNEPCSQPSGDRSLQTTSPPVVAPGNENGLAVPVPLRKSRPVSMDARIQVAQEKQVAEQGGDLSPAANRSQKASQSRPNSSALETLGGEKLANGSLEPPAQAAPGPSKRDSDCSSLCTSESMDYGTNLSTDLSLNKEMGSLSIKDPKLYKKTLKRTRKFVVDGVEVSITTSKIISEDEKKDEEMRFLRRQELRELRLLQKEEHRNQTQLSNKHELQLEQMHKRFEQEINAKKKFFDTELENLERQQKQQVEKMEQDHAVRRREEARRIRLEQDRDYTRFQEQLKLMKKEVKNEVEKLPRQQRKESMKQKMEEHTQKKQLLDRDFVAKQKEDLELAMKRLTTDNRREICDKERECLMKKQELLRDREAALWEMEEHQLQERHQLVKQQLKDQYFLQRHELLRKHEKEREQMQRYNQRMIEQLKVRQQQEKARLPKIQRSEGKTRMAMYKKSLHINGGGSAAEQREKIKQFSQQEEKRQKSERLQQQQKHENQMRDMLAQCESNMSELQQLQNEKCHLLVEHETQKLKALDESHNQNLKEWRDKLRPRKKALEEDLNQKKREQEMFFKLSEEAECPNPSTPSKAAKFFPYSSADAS
468 kinases including some pathogenic mutants (Homo sapiens, UniProt Q7L7X3), sequence (Q7L7X3 whole entry, change not shown): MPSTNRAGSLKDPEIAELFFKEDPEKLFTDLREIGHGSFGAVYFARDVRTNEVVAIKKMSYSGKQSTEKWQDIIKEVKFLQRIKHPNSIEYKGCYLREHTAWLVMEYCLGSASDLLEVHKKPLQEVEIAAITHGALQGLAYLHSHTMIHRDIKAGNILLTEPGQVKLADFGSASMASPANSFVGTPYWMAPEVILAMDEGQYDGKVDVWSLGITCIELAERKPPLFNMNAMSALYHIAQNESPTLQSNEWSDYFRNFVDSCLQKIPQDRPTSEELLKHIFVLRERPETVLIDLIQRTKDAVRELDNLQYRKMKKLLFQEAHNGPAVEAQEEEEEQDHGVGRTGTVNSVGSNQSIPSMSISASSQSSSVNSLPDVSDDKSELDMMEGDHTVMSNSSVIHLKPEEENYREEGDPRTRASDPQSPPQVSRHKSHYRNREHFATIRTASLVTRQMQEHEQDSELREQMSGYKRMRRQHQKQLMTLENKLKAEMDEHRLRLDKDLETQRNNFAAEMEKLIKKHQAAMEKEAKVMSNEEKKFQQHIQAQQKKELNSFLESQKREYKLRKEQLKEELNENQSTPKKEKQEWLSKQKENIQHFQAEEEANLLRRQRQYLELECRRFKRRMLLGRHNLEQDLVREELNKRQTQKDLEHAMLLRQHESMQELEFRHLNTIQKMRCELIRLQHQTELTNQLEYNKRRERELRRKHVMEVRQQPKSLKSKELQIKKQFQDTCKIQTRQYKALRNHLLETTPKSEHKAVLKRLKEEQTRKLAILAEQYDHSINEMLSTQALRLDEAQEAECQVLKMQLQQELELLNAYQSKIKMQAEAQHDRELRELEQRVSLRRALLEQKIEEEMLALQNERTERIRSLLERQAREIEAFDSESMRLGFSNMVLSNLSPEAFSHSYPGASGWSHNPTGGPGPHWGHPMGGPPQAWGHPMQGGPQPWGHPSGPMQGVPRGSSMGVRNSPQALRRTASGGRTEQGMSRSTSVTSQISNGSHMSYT

Compound: CN1C(=O)[C@@H](N2CCc3c(nn(Cc4ccccc4)c3C(N)=O)C2=O)COc2cc(Cl)ccc21 [Compound 10, (S)-2-benzyl-6-(8-chloro-5-methyl-4-oxo-2,3,4,5-tetrahydrobenzo[b][1,4]oxazepin-3-yl)-7-oxo-4,5,6,7-tetrahydro-2H-pyrazolo[3,4-c]pyridine-3-carboxamide]
- remaining activity at 0.1 µM [1]: 57%
- remaining activity at 0.1 µM [2]: 100%
- remaining activity at 0.1 µM [3]: 100%
- remaining activity at 0.1 µM [4]: 89%
- remaining activity at 0.1 µM [5]: 100%
- remaining activity at 0.1 µM [6]: 61%
- remaining activity at 0.1 µM [7]: 69%
- remaining activity at 1 µM [8]: 100%
- remaining activity at 1 µM [9]: 100%
- remaining activity at 0.1 µM [10]: 81%
- remaining activity at 1 µM [11]: 100%
- remaining activity at 0.1 µM [12]: 96%
- remaining activity at 0.1 µM [13]: 82%
- remaining activity at 0.1 µM [14]: 65%
- remaining activity at 0.1 µM [15]: 67%
- remaining activity at 0.1 µM [16]: 65%
- remaining activity at 1 µM ([17]; RSK1(Kin.Dom.1-N-terminal) (Entrez RPS6KA1)): 100%
- remaining activity at 1 µM ([17]; RSK1(Kin.Dom.2-C-terminal) (Entrez RPS6KA1)): 100%
- remaining activity at 0.1 µM [18]: 79%
- remaining activity at 0.1 µM [19]: 87%
- remaining activity at 1 µM [20]: 100%
- remaining activity at 0.1 µM [21]: 90%
- remaining activity at 0.1 µM [22]: 100%
- remaining activity at 0.1 µM [23]: 78%
- remaining activity at 0.1 µM [24]: 83%
- remaining activity at 0.1 µM [25]: 77%
- remaining activity at 1 µM [26]: 100%
- remaining activity at 0.1 µM [27]: 100%
- remaining activity at 0.1 µM [28]: 76%
- remaining activity at 1 µM [29]: 100%
